From PubChem BioAssay (NCI)
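Protocol summary: plate cells (96-well), add compound at 5 concentrations, incubate 48 h, interpolate endpoints linearly. Definition used: TGI = concentration required for complete inhibition of growth.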

Columns and labels:
Assay in all cases: NCI anticancer screen, dose series, 48 h
SNB-75 CNS = tested on: SNB-75 CNS
KM20L2 colon = tested on: KM20L2 colon
NCI-H460 lung = tested on: NCI-H460 lung
OVCAR-8 ovarian = tested on: OVCAR-8 ovarian
TK-10 renal = tested on: TK-10 renal
UO-31 renal = tested on: UO-31 renal
EKVX NSCLC = tested on: EKVX NSCLC
SK-MEL-2 melanoma = tested on: SK-MEL-2 melanoma
DLD-1 colon = tested on: DLD-1 colon
HOP-18 NSCLC = tested on: HOP-18 NSCLC
U251 CNS = tested on: U251 CNS
786-0 renal = tested on: 786-0 renal
RXF-631 renal = tested on: RXF-631 renal
CAKI-1 renal = tested on: CAKI-1 renal
LXFL 529 NSCLC = tested on: LXFL 529 NSCLC
RPMI-8226 leukemia = tested on: RPMI-8226 leukemia
A498 renal = tested on: A498 renal
HCT-116 colon = tested on: HCT-116 colon
DMS 114 small cell lung = tested on: DMS 114 small cell lung
SNB-19 CNS = tested on: SNB-19 CNS
SK-OV-3 ovarian = tested on: SK-OV-3 ovarian
HT29 colon = tested on: HT29 colon
KM12 colon = tested on: KM12 colon
NCI-H522 lung = tested on: NCI-H522 lung
M19-MEL melanoma = tested on: M19-MEL melanoma
LOX IMVI melanoma = tested on: LOX IMVI melanoma
SF-268 CNS = tested on: SF-268 CNS
OVCAR-5 ovarian = tested on: OVCAR-5 ovarian
NCI-H23 lung = tested on: NCI-H23 lung
HCT-15 colon = tested on: HCT-15 colon
SR leukemia = tested on: SR leukemia
UACC-257 melanoma = tested on: UACC-257 melanoma
RXF 393 renal = tested on: RXF 393 renal
XF 498 CNS = tested on: XF 498 CNS
SW-620 colon = tested on: SW-620 colon
OVCAR-4 ovarian = tested on: OVCAR-4 ovarian
M14 melanoma = tested on: M14 melanoma
SF-295 CNS = tested on: SF-295 CNS
COLO 205 colon = tested on: COLO 205 colon
UACC-62 melanoma = tested on: UACC-62 melanoma
HOP-92 NSCLC = tested on: HOP-92 NSCLC
MALME-3M melanoma = tested on: MALME-3M melanoma
DMS 273 small cell lung = tested on: DMS 273 small cell lung
HL-60(TB) leukemia = tested on: HL-60(TB) leukemia
SK-MEL-28 melanoma = tested on: SK-MEL-28 melanoma
K-562 leukemia = tested on: K-562 leukemia
OVCAR-3 ovarian = tested on: OVCAR-3 ovarian
HOP-62 NSCLC = tested on: HOP-62 NSCLC
HCC-2998 colon = tested on: HCC-2998 colon
SN12C renal = tested on: SN12C renal
MOLT-4 leukemia = tested on: MOLT-4 leukemia
SK-MEL-5 melanoma = tested on: SK-MEL-5 melanoma
IGROV1 ovarian = tested on: IGROV1 ovarian
CCRF-CEM leukemia = tested on: CCRF-CEM leukemia
ACHN renal = tested on: ACHN renal
NCI-H226 lung = tested on: NCI-H226 lung
SNB-78 CNS = tested on: SNB-78 CNS
SF-539 CNS = tested on: SF-539 CNS
A549 NSCLC = tested on: A549 NSCLC

`CCOC(=O)/C(ON)=C(/CC/C(C(=O)OC)=C(\ON)C(=O)OCC)C(=O)OC` was tested, and the TGI (SNB-75 CNS) was over 100 µM, the TGI (KM20L2 colon) was over 100 µM and the TGI (NCI-H460 lung) was over 100 µM. The TGI (OVCAR-8 ovarian) was over 100 µM, the TGI (TK-10 renal) was over 100 µM and the TGI (UO-31 renal) was over 100 µM. For the same compound, the TGI (EKVX NSCLC) was over 100 µM, the TGI (SK-MEL-2 melanoma) was over 100 µM and the TGI (DLD-1 colon) was over 100 µM. For the same compound, the TGI (HOP-18 NSCLC) was over 100 µM, the TGI (U251 CNS) was over 100 µM and the TGI (786-0 renal) was over 100 µM. It also gave a TGI (RXF-631 renal) of over 100 µM, a TGI (CAKI-1 renal) of over 100 µM and a TGI (LXFL 529 NSCLC) of over 100 µM. For the same compound, the TGI (RPMI-8226 leukemia) was over 100 µM, the TGI (A498 renal) was over 100 µM and the TGI (HCT-116 colon) was over 100 µM. The TGI (DMS 114 small cell lung) was over 100 µM, the TGI (SNB-19 CNS) was over 100 µM and the TGI (SK-OV-3 ovarian) was over 100 µM. For the same compound, the TGI (HT29 colon) was over 100 µM, the TGI (KM12 colon) was over 100 µM and the TGI (NCI-H522 lung) was over 100 µM. It also gave a TGI (M19-MEL melanoma) of over 100 µM, a TGI (LOX IMVI melanoma) of over 100 µM and a TGI (SF-268 CNS) of over 100 µM. For the same compound, the TGI (OVCAR-5 ovarian) was over 100 µM, the TGI (NCI-H23 lung) was over 100 µM and the TGI (HCT-15 colon) was over 100 µM. It also gave a TGI (SR leukemia) of over 100 µM, a TGI (UACC-257 melanoma) of over 100 µM and a TGI (RXF 393 renal) of over 100 µM. For the same compound, the TGI (XF 498 CNS) was over 100 µM, the TGI (SW-620 colon) was over 100 µM and the TGI (OVCAR-4 ovarian) was over 100 µM. It also gave a TGI (M14 melanoma) of over 100 µM, a TGI (SF-295 CNS) of over 100 µM and a TGI (COLO 205 colon) of over 100 µM. It also gave a TGI (UACC-62 melanoma) of over 100 µM, a TGI (HOP-92 NSCLC) of over 100 µM and a TGI (MALME-3M melanoma) of over 100 µM. The TGI (DMS 273 small cell lung) was over 100 µM, the TGI (HL-60(TB) leukemia) was over 100 µM and the TGI (SK-MEL-28 melanoma) was over 100 µM. It also gave a TGI (K-562 leukemia) of over 100 µM, a TGI (OVCAR-3 ovarian) of over 100 µM and a TGI (HOP-62 NSCLC) of over 100 µM. For the same compound, the TGI (HCC-2998 colon) was over 100 µM, the TGI (SN12C renal) was over 100 µM and the TGI (MOLT-4 leukemia) was over 100 µM. It also gave a TGI (SK-MEL-5 melanoma) of over 100 µM, a TGI (IGROV1 ovarian) of over 100 µM and a TGI (CCRF-CEM leukemia) of over 100 µM. The TGI (ACHN renal) was over 100 µM, the TGI (NCI-H226 lung) was over 100 µM and the TGI (SNB-78 CNS) was over 100 µM. The TGI (SF-539 CNS) was over 100 µM and the TGI (A549 NSCLC) was over 100 µM.
In the case of `CCOc1ccc(Nc2nc(C)c(C(=O)/C=C/c3ccc(Cl)cc3Cl)s2)cc1`, the TGI (SNB-75 CNS) is reported as 39.3 µM, the TGI (KM20L2 colon) is reported as 52.2 µM and the TGI (NCI-H460 lung) is reported as 42.6 µM. The TGI (OVCAR-8 ovarian) was 40.7 µM, the TGI (TK-10 renal) was 52.6 µM and the TGI (UO-31 renal) was 51 µM. It also gave a TGI (EKVX NSCLC) of 85.7 µM, a TGI (SK-MEL-2 melanoma) of 61.6 µM and a TGI (DLD-1 colon) of 84.5 µM. For the same compound, the TGI (HOP-18 NSCLC) was 66.7 µM, the TGI (U251 CNS) was 37.9 µM and the TGI (786-0 renal) was 36.3 µM. For the same compound, the TGI (RXF-631 renal) was 54.8 µM, the TGI (CAKI-1 renal) was 55.4 µM and the TGI (LXFL 529 NSCLC) was 37.5 µM. For the same compound, the TGI (RPMI-8226 leukemia) was over 100 µM, the TGI (A498 renal) was 50.5 µM and the TGI (HCT-116 colon) was 38.3 µM. The TGI (DMS 114 small cell lung) was 56.5 µM, the TGI (SNB-19 CNS) was over 100 µM and the TGI (SK-OV-3 ovarian) was 54.3 µM. The TGI (HT29 colon) was 39.4 µM, the TGI (KM12 colon) was 33.5 µM and the TGI (NCI-H522 lung) was 43.2 µM. It also gave a TGI (M19-MEL melanoma) of 47.4 µM, a TGI (LOX IMVI melanoma) of 31.8 µM and a TGI (SF-268 CNS) of 77.3 µM. It also gave a TGI (OVCAR-5 ovarian) of over 100 µM, a TGI (NCI-H23 lung) of 44.1 µM and a TGI (HCT-15 colon) of 48.6 µM. The TGI (SR leukemia) was 71.2 µM, the TGI (UACC-257 melanoma) was 53.8 µM and the TGI (RXF 393 renal) was 40.6 µM. The TGI (XF 498 CNS) was 39.1 µM, the TGI (SW-620 colon) was 38.7 µM and the TGI (OVCAR-4 ovarian) was 28.7 µM. It also gave a TGI (M14 melanoma) of 50.1 µM, a TGI (SF-295 CNS) of 38.5 µM and a TGI (COLO 205 colon) of 32.3 µM. It also gave a TGI (UACC-62 melanoma) of 77.4 µM, a TGI (HOP-92 NSCLC) of 68.3 µM and a TGI (MALME-3M melanoma) of 62.7 µM. The TGI (DMS 273 small cell lung) was 45 µM, the TGI (HL-60(TB) leukemia) was 65.6 µM and the TGI (SK-MEL-28 melanoma) was 51 µM. It also gave a TGI (K-562 leukemia) of 93.5 µM, a TGI (OVCAR-3 ovarian) of 41 µM and a TGI (HOP-62 NSCLC) of 81.3 µM. It also gave a TGI (HCC-2998 colon) of 43.9 µM, a TGI (SN12C renal) of 37.1 µM and a TGI (MOLT-4 leukemia) of 51.5 µM. The TGI (SK-MEL-5 melanoma) was 38.8 µM, the TGI (IGROV1 ovarian) was 85.1 µM and the TGI (CCRF-CEM leukemia) was 80.2 µM. For the same compound, the TGI (ACHN renal) was 71 µM, the TGI (NCI-H226 lung) was 36.9 µM and the TGI (SNB-78 CNS) was 67.9 µM. It also gave a TGI (SF-539 CNS) of 78.8 µM and a TGI (A549 NSCLC) of 45.9 µM.
